# In ChEMBL document CHEMBL1201862, “PubChem BioAssay data set” (2004):
#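 Grown in 96-well plates, cells were treated for 48 hours with each compound at five concentrations. Insufficient inhibition: endpoint recorded as highest concentration tested. Abbreviation: GI50, concentration required for 50% inhibition of growth.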 Activity calls are given as the source filed them. Rule as the data show it: active = GI50 up to about 1.1 µM and inactive = higher.
# How the values were obtained:
# Assay in all cases: NCI-60 cell line screen, 48 h
# [1] = system: HCT-116
# [2] = system: SW-620
# [3] = system: UO-31
# [4] = system: RPMI-8226
# [5] = system: KM12
# [6] = system: NCI/ADR-RES
# [7] = system: SF-539
# [8] = system: PC-3
# [9] = system: SN12C
# [10] = system: RXF 393
# [11] = system: MDA-MB-231
# [12] = system: SF-295
# [13] = system: HOP-92
# [14] = system: HL-60
# [15] = system: NCI-H23
# [16] = system: UACC-62
# [17] = system: U-251
# [18] = system: OVCAR-5
# [19] = system: SR
# [20] = system: HOP-62
# [21] = system: HT-29
# [22] = system: NCI-H460
# [23] = system: K562
# [24] = system: HCC 2998
# [25] = system: MOLT-4
# [26] = system: SK-MEL-2
# [27] = system: OVCAR-8
# [28] = system: 786-0
# [29] = system: MDA-MB-435
# [30] = system: SK-OV-3
# [31] = system: HCT-15
# [32] = system: COLO 205
# [33] = system: DU-145
# [34] = system: TK-10
# [35] = system: A549
# [36] = system: NCI-H226
# [37] = system: UACC-257
# [38] = system: M14
# [39] = system: SNB-75
# [40] = system: NCI-H522
# [41] = system: MDA-N
# [42] = system: OVCAR-4
# [43] = system: CCRF-CEM
# [44] = system: Malme-3M
# [45] = system: SK-MEL-28
# [46] = system: CAKI-1
# [47] = system: IGROV-1
# [48] = system: SK-MEL-5
# [49] = system: MCF7
# [50] = system: Hs-578T
# [51] = system: A498
# [52] = system: SNB-19
# [53] = system: ACHN
# [54] = system: T47D
# [55] = system: EKVX
# [56] = system: SF-268
# [57] = system: LOX IMVI
# [58] = system: BT-549
# [59] = system: OVCAR-3
smiles,measurement,setting,value
NC(=O)CC(/N=C1\C(=O)OC(C(O)CO)\C1=N/C(CC(N)=O)C(=O)O)C(=O)O (stereo not given),GI50,[1],> 100 µM (inactive)
same,GI50,[2],> 100 µM (inactive)
same,GI50,[3],> 100 µM (inactive)
same,GI50,[4],> 100 µM (inactive)
same,GI50,[5],> 100 µM (inactive)
same,GI50,[6],> 100 µM (inactive)
same,GI50,[7],> 100 µM (inactive)
same,GI50,[8],> 100 µM (inactive)
same,GI50,[9],> 100 µM (inactive)
same,GI50,[10],> 100 µM (inactive)
same,GI50,[11],> 100 µM (inactive)
same,GI50,[12],> 100 µM (inactive)
same,GI50,[13],> 100 µM (inactive)
same,GI50,[14],> 100 µM (inactive)
same,GI50,[15],> 100 µM (inactive)
same,GI50,[16],> 100 µM (inactive)
same,GI50,[17],> 100 µM (inactive)
same,GI50,[18],> 10 µM (inactive)
same,GI50,[19],> 100 µM (inactive)
same,GI50,[20],> 100 µM (inactive)
same,GI50,[21],> 100 µM (inactive)
same,GI50,[22],> 100 µM (inactive)
same,GI50,[23],> 100 µM (inactive)
same,GI50,[24],> 100 µM (inactive)
same,GI50,[25],> 100 µM (inactive)
same,GI50,[26],> 100 µM (inactive)
same,GI50,[27],> 100 µM (inactive)
same,GI50,[28],> 100 µM (inactive)
same,GI50,[29],> 100 µM (inactive)
same,GI50,[30],> 100 µM (inactive)
same,GI50,[31],> 100 µM
same,GI50,[32],> 100 µM (inactive)
same,GI50,[33],> 100 µM (inactive)
same,GI50,[34],> 100 µM (inactive)
same,GI50,[35],> 100 µM (inactive)
same,GI50,[36],> 100 µM (inactive)
same,GI50,[37],> 100 µM (inactive)
same,GI50,[38],> 100 µM (inactive)
same,GI50,[39],> 100 µM (inactive)
same,GI50,[40],> 100 µM (inactive)
same,GI50,[41],> 100 µM (inactive)
same,GI50,[42],> 100 µM (inactive)
same,GI50,[43],> 100 µM (inactive)
same,GI50,[44],> 100 µM (inactive)
same,GI50,[45],> 100 µM (inactive)
same,GI50,[46],> 100 µM (inactive)
same,GI50,[47],> 100 µM (inactive)
same,GI50,[48],> 100 µM (inactive)
same,GI50,[49],> 100 µM (inactive)
same,GI50,[50],> 100 µM (inactive)
same,GI50,[51],> 100 µM (inactive)
same,GI50,[52],> 100 µM (inactive)
same,GI50,[53],> 100 µM (inactive)
same,GI50,[54],> 100 µM (inactive)
same,GI50,[55],> 100 µM (inactive)
same,GI50,[56],> 100 µM (inactive)
COc1ccc(NC(=O)NNS(=O)(=O)c2ccc(C)cc2)cc1,GI50,[1],> 100 µM (inactive)
same,GI50,[2],> 100 µM (inactive)
same,GI50,[3],> 100 µM (inactive)
same,GI50,[4],> 100 µM (inactive)
same,GI50,[5],91.6 µM (inactive)
same,GI50,[6],> 100 µM (inactive)
same,GI50,[7],> 100 µM (inactive)
same,GI50,[8],71 µM (inactive)
same,GI50,[9],> 100 µM (inactive)
same,GI50,[10],> 100 µM (inactive)
same,GI50,[11],> 100 µM (inactive)
same,GI50,[12],> 100 µM (inactive)
same,GI50,[13],> 100 µM (inactive)
same,GI50,[14],> 100 µM (inactive)
same,GI50,[15],52.8 µM (inactive)
same,GI50,[16],70 µM (inactive)
same,GI50,[17],> 100 µM (inactive)
same,GI50,[18],> 100 µM (inactive)
same,GI50,[19],63 µM (inactive)
same,GI50,[20],> 100 µM (inactive)
same,GI50,[21],> 100 µM (inactive)
same,GI50,[22],> 100 µM (inactive)
same,GI50,[23],> 100 µM (inactive)
same,GI50,[24],> 100 µM (inactive)
same,GI50,[25],> 100 µM (inactive)
same,GI50,[26],> 100 µM (inactive)
same,GI50,[27],> 100 µM (inactive)
same,GI50,[28],0.792 µM (active)
same,GI50,[29],30.4 µM (inactive)
same,GI50,[30],> 100 µM (inactive)
same,GI50,[31],> 100 µM
same,GI50,[32],> 100 µM (inactive)
same,GI50,[33],> 100 µM (inactive)
same,GI50,[34],> 100 µM (inactive)
same,GI50,[35],> 100 µM (inactive)
same,GI50,[36],> 100 µM (inactive)
same,GI50,[37],> 100 µM (inactive)
same,GI50,[38],> 100 µM (inactive)
same,GI50,[39],29.4 µM (inactive)
same,GI50,[40],45.1 µM (inactive)
same,GI50,[41],32.7 µM (inactive)
same,GI50,[42],25.1 µM (inactive)
same,GI50,[43],> 100 µM (inactive)
same,GI50,[44],> 100 µM (inactive)
same,GI50,[45],> 100 µM (inactive)
same,GI50,[46],> 100 µM (inactive)
same,GI50,[47],> 100 µM (inactive)
same,GI50,[48],74 µM (inactive)
same,GI50,[49],> 100 µM (inactive)
same,GI50,[50],> 100 µM (inactive)
same,GI50,[51],> 100 µM (inactive)
same,GI50,[52],> 100 µM (inactive)
same,GI50,[53],91.6 µM (inactive)
same,GI50,[54],> 100 µM (inactive)
same,GI50,[55],> 100 µM (inactive)
same,GI50,[56],> 100 µM (inactive)
CCN(CC)CCCOc1cc2c(cc1OC)C(=O)N1CCC[C@H]1C=N2,GI50,[1],32.4 µM (inactive)
same,GI50,[2],17.2 µM (inactive)
same,GI50,[3],39.9 µM (inactive)
same,GI50,[4],21.1 µM (inactive)
same,GI50,[5],20 µM (inactive)
same,GI50,[6],> 100 µM (inactive)
same,GI50,[7],42.7 µM (inactive)
same,GI50,[8],42.5 µM (inactive)
same,GI50,[57],16.4 µM (inactive)
same,GI50,[9],42.3 µM (inactive)
same,GI50,[10],25.8 µM (inactive)
same,GI50,[11],24.2 µM (inactive)
same,GI50,[12],28.8 µM (inactive)
same,GI50,[13],24.6 µM (inactive)
same,GI50,[14],30.1 µM (inactive)
same,GI50,[16],21.4 µM (inactive)
same,GI50,[17],26.4 µM (inactive)
same,GI50,[18],49.8 µM (inactive)
same,GI50,[19],29.2 µM (inactive)
same,GI50,[20],23.3 µM (inactive)
same,GI50,[21],17.8 µM (inactive)
same,GI50,[22],97.7 µM (inactive)
same,GI50,[23],37.5 µM (inactive)
same,GI50,[25],19.5 µM (inactive)
same,GI50,[26],46 µM (inactive)
same,GI50,[27],40.8 µM (inactive)
same,GI50,[28],30.5 µM (inactive)
same,GI50,[29],22.5 µM (inactive)
same,GI50,[30],39.7 µM (inactive)
same,GI50,[31],41.5 µM
same,GI50,[32],19.8 µM (inactive)
same,GI50,[33],35.2 µM (inactive)
same,GI50,[34],61.8 µM (inactive)
same,GI50,[35],> 100 µM (inactive)
same,GI50,[36],24.4 µM (inactive)
same,GI50,[37],53.7 µM (inactive)
same,GI50,[38],30.2 µM (inactive)
same,GI50,[40],11.4 µM (inactive)
same,GI50,[42],8.38 µM (inactive)
same,GI50,[43],33.2 µM (inactive)
same,GI50,[44],42.5 µM (inactive)
same,GI50,[45],18.1 µM (inactive)
same,GI50,[46],18.2 µM (inactive)
same,GI50,[58],26.9 µM (inactive)
same,GI50,[48],19.6 µM (inactive)
same,GI50,[49],43 µM (inactive)
same,GI50,[50],71.1 µM (inactive)
same,GI50,[51],29.6 µM (inactive)
same,GI50,[52],49.1 µM (inactive)
same,GI50,[59],24.2 µM (inactive)
same,GI50,[53],29.6 µM (inactive)
same,GI50,[55],68.4 µM (inactive)
same,GI50,[56],41.4 µM (inactive)
